Peptide text beside a SMILES is read from it.
Experiments:
[1] = target: T1, αIIbβ3 (Homo sapiens, UniProt P08514); experiment: Force spectroscopy (laser tweezers), platelets and fibrinogen-coated beads; assay type: cell-based
T1 construct: trapped from a suspension of gel filtered human platelets or CHO cells; endogenous in cells; host or cells: gel-filtered human platelets
Description: Litvinov R I et al. Proc. Natl. Acad. Sci. USA. 99, 7426-31 (2002). Recombinant human OPN, prepared as previously described (Bennett J S et al. J. Biol. Chem. 272, 8137-40 (1997)) or purified human fibrinogen was covalently bound to 0.93 μm carboxylate-modified latex beads. Individual cells, trapped from a suspension of gel filtered human platelets or CHO cells, were manually attached to 5 μm diameter silica pedestals coated with polylysine. An OPN- or fibrinogen-coated bead, trapped by the laser light, was then brought into proximity of an immobilized cell, oscillated at 50 Hz, and then brought into repeated intermittent contact with the cell by micromanipulation. Data collection was initiated at the first contact between the bead and the cell. Rupture forces following repeated contacts were collected for periods of several seconds to one minute. Individual forces measured during each contact-detachment cycle were collected into 10 pN-wide bins. The number of events in each bin was then plotted against the average force for that bin after normalizing for the total number of interaction cycles. Thus, the percentage of events in a particular force range (bin) represents the probability of rupture events at that tension. Optical artifacts observed with or without trapped latex beads produce signals that appeared as forces below 10 pN. Therefore, rupture forces in this range were not considered when the data were analyzed. The polypeptide was added from a DMSO solution such that the final concentration of DMSO was no greater than 0.5%. All controls also had 0.5% DMSO in the buffer.
Beads coated with fibrinogen were brought into intermittent contact with immobilized platelets in the presence or absence of anti-αIIb and the rupture force was measured. Litvinov R I et al. J. Biol. Chem. 278, 51285-51290 (2003). In the absence of anti-αIIb, the binding probability of platelets and fibrinogen-coated beads decreased exponentially (FIG. 5a) with increasing force, consistent with a non-specific interaction of the beads with the platelet surface. Litvinov R I (2003). […]

[2] = Trp fluorescence, phospholipid bilayer insertion; assay type: physicochemical; details: for insertion into phospholipid vesicles: FIG. 9
Experimental: Fluorescence intensity was measured on an ATF 105 spectrofluorometer (Aviv Biomedical, Inc., Lakewood, N.J.) using a 0.3 cm path length cuvette. Small unilamellar vesicles composed of 1-Palmitoyl-2-Oleoyl-sn-Glycero-3-Phosphocholine and 1-Palmitoyl-2-Oleoyl-sn-Glycero-3-[Phospho-rac-(1-glycerol)] (7:3) were prepared using standard ethanol dilution (Batzri S & Korn E D. Biochim. Biophys. Acta. 298, 1015-1019 (1973)): phospholipids were initially dissolved in 15 μl ethanol and then diluted to 1 ml with buffer (20 mM HEPES, pH=7.5). Samples with 1 μM anti-αIIb in the presence of 0, 100, and 500 μM total phospholipids were prepared. Excitation of 280 nm was used for emission scans ranging from 410 nm to 300 nm. Excitation and emission slit widths are 2.5 nm and 1.5 nm, respectively. An average time of 1.0 second was used.
See FIG. 9, which provides the emission scans of anti-αIIb (1 μM) and of anti-αV in the presence of three different concentrations of phospholipids. Provided are emission scans of 1 μM anti-αIIb (FIG. 9a) and 1 μM anti-αV (FIG. 9b) in presence of 0 μM (*), 100 μM (†), and 500 μM (^) of phospholipids (POPC:POPG=7:3, excitation wavelength=280 nm). The emission maximum of the Trp residue in anti-αIIb occurs at 353 nm, consistent with a fully-exposed Trp residue in the absence of membranes. In the presence of phospholipids vesicles, the emission maximum blue-shifts by 31 nm, indicating a transfer to a membrane-like environment.

[3] = target: T2, αv TM domain (Homo sapiens, UniProt P06756); experiment: DN-TOXCAT heterodimerization; assay type: cell-based; details: coexpressed in bacterial membranes
T2 construct: expressed in transfected cells; host or cells: E. coli MM39, pDNToxR-Duet
T2 sequence (P06756 with tags, fused parts or gaps limits assumed): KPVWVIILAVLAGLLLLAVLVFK
Experimental: Both the affinity and specificity of the membrane protein-binding peptides for their targets when coexpressed in bacterial membranes were assessed with a DN-“TOXCAT” assay (FIGS. 3a-3c). In TOXCAT, a TM sequence of interest is fused to a ToxR protein (TM-ToxR) that binds to the ctx promoter as a dimer, which induces expression of chloramphenicol acetyltransferase (CAT) (W. P. Russ, D. M. Engelman, Proc. Natl. Acad. Sci. U.S.A. 96, 863 (1999); D. Langosch, B. Brosig, H. Kolmar, H. J. Fritz, J. Mol. Biol. 263, 525 (1996)). In the DN assay, the TM1-ToxR fusion protein is coexpressed with a second fusion protein (TM2-ToxR*) containing a nonfunctional mutant of the ToxR domain. TM-driven dimerization leads to a ToxR-ToxR* dimer that is unable to bind the ctx promoter or to induce CAT synthesis (FIG. 3a). The resulting decrease in CAT activity can be used to monitor the formation of a heterodimeric TM complex. In principle, this assay could be accomplished by adding an exogenous synthetic peptide (D. Gerber, N. Sal-Man, Y. Shai, J. Mol. Biol. 339, 243 (2004)); however, it is difficult to assure that different peptides will be similarly inserted into the Escherichia coli inner membrane.
For testing the specificity of the designed membrane protein-binding polypeptide sequences against the integrin TM domains, the designed sequences (anti-αIIb and anti-αV) were cloned into MCS1 of the Duet vector and the integrin TM domains into MCS2 of the Duet vector. In this configuration, the integrin TMs compete for the homodimers formed by the polypeptide sequences, with the decrease in CAT signal proportional to the extent of heterodimerization between a given integrin TM and polypeptide sequence relative to the homodimerization of the polypeptide sequence.
Single MM39 colonies containing pDNToxR-Duet constructs from selective plates were chosen, inoculated in 5 mL of LB medium containing 100 μg/mL ampicillin and grown to an OD600 of 0.2 at 37° C. with vigorous shaking. IPTG was added to the medium at a final concentration of 0.1 mM IPTG and grown to an OD600 of 0.7. Purification, immunoblotting, CAT ELISA and MalE complementation assays are essentially as described previously. Li, R., Gorelik, R., Nanda, V., Law, P. B., Lear, J. D., DeGrado, W. F. and Bennett, J. S. J. Biol. Chem. 2004, 279, 26666-26673 (2004). For immunoblotting, anti-MBP (NEB) was used for pccKAN (TOXCAT) constructs, whereas anti-myc (Covance) and anti-HA (Covance) were used for pDNToxR-Duet constructs. CAT ELISA results are an average of 3 independent replicates.

[4] = TOXCAT homodimerization in bacterial membranes; assay type: cell-based, Escherichia coli; details: ToxR fusion in E. coli
Experimental: Both the affinity and specificity of the membrane protein-binding peptides for their targets when coexpressed in bacterial membranes were assessed with a DN-“TOXCAT” assay (FIGS. 3a-3c). In TOXCAT, a TM sequence of interest is fused to a ToxR protein (TM-ToxR) that binds to the ctx promoter as a dimer, which induces expression of chloramphenicol acetyltransferase (CAT) (W. P. Russ, D. M. Engelman, Proc. Natl. Acad. Sci. U.S.A. 96, 863 (1999); D. Langosch, B. Brosig, H. Kolmar, H. J. Fritz, J. Mol. Biol. 263, 525 (1996)). In the DN assay, the TM1-ToxR fusion protein is coexpressed with a second fusion protein (TM2-ToxR*) containing a nonfunctional mutant of the ToxR domain. TM-driven dimerization leads to a ToxR-ToxR* dimer that is unable to bind the ctx promoter or to induce CAT synthesis (FIG. 3a). The resulting decrease in CAT activity can be used to monitor the formation of a heterodimeric TM complex. In principle, this assay could be accomplished by adding an exogenous synthetic peptide (D. Gerber, N. Sal-Man, Y. Shai, J. Mol. Biol. 339, 243 (2004)); however, it is difficult to assure that different peptides will be similarly inserted into the Escherichia coli inner membrane. […]

T1 sequence (P08514 891-1039 limits assumed): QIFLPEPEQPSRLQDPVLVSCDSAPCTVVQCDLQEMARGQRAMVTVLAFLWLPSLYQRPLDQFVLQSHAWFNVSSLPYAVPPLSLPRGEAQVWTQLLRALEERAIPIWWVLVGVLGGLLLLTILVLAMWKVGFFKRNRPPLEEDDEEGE
T1 sequence (P08514 32-887 partner limits assumed): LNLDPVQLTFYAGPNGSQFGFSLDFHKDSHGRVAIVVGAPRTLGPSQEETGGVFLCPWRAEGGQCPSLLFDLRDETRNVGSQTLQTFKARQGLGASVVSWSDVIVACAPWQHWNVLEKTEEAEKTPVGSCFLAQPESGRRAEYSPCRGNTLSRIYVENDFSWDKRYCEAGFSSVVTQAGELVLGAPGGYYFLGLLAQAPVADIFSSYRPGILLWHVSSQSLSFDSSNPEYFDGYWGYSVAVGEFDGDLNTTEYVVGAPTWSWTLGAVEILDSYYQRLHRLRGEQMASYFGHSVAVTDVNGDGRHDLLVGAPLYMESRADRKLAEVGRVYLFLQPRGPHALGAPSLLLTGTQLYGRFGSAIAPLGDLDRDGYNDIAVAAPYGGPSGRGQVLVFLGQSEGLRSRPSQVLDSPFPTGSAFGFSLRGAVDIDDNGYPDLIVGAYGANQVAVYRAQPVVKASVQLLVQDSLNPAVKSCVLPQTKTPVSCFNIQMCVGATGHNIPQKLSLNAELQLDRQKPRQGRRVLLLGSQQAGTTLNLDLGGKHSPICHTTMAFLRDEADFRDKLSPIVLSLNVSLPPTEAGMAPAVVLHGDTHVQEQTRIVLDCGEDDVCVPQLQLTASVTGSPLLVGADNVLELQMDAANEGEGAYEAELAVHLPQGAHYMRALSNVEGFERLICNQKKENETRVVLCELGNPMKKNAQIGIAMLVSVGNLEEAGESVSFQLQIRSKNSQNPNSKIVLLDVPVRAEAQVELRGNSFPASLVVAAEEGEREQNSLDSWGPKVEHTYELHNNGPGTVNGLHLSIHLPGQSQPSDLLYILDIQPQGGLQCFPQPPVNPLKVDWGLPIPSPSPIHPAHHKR
T1 sequence (P05106 27-788 partner): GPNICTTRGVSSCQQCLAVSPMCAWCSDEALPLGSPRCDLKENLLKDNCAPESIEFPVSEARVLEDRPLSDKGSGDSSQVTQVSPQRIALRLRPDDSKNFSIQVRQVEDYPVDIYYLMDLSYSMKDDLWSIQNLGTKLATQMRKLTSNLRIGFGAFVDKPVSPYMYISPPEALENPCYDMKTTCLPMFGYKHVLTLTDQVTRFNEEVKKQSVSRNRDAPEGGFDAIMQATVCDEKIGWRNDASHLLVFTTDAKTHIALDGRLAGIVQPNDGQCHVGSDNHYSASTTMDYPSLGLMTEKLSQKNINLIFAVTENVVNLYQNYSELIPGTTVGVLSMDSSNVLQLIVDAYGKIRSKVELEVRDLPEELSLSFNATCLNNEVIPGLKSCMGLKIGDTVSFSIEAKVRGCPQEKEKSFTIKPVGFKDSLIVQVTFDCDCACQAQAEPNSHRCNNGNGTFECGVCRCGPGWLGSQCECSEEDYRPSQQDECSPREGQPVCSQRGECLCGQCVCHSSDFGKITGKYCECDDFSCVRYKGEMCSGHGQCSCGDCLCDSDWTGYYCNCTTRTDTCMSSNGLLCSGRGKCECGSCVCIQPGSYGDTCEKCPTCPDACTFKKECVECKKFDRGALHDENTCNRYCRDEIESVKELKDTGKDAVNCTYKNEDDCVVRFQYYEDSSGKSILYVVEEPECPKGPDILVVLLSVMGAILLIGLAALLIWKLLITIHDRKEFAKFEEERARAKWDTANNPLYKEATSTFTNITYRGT

Compound	rupture force / activation, platelets and fibrinogen-coated beads [1]	insertion into phospholipid vesicles [2]	interaction with αv TM domain [3]	homodimer formation in bacterial membranes (CAT signal, words) [4]	peak of rupture force between platelets and fibrinogen-coated beads ([1]; 0.5 μM polypeptide) [pN]	rupture force peak after pre-incubation with αIIbβ3 antibody abciximab ([1]; 0.5 μM polypeptide)	blue-shift of Trp emission maximum in the presence of phospholipid vesicles ([2]; 1 μM peptide, POPC:POPG 7:3 vesicles) [nm]	emission maximum of the Trp residue in the absence of membranes ([2]; 1 μM peptide, excitation 280 nm, 0 μM phospholipids) [nm]
AYVFILLSFILGTLLGFLVMFWA [anti-αV]	no peak of specific rupture force was observed	successfully insert	much greater affinity than the α2, αIIb, β1, or β3 domains	affinity similar to that of the TM domain of glycophorin A (GpA)				
CC[C@H](C)[C@H](NC(=O)[C@H](Cc1ccccc1)NC(=O)[C@H](Cc1ccccc1)NC(=O)[C@@H]1CCCN1C(=O)[C@H](CC(C)C)NC(=O)[C@H](CC(C)C)NC(=O)[C@H](CCSC)NC(=O)[C@@H](NC(=O)[C@H](Cc1ccc(O)cc1)NC(=O)[C@H](C)NC(=O)[C@H](CCCCN)NC(=O)[C@@H](N)CCCCN)C(C)C)C(=O)NCC(=O)N[C@@H](CC(C)C)C(=O)N[C@@H](CC(C)C)C(=O)N[C@@H](CC(C)C)C(=O)NCC(=O)N[C@@H](CC(C)C)C(=O)N[C@H](C(=O)N[C@@H](Cc1ccccc1)C(=O)NCC(=O)NCC(=O)N[C@@H](C)C(=O)N[C@@H](Cc1ccccc1)C(=O)N[C@@H](Cc1c[nH]c2ccccc12)C(=O)NCC(=O)N1CCC[C@H]1C(=O)N[C@@H](C)C(=O)N[C@@H](CCCNC(=N)N)C(=O)N[C@@H](Cc1c[nH]cn1)C(=O)N[C@@H](CC(C)C)C(=O)N[C@@H](CCCCN)C(=O)N[C@@H](CCCCN)C(N)=O)[C@@H](C)CC [anti-αIIb] (H-KKAYVMLLPFFIGLLLGLIFGGAFWGPARHLKK-NH2; N-terminus assumed)		successfully insert	failed to significantly interact	affinity similar to that of the TM domain of glycophorin A (GpA)	~70	eliminated the rupture force peak	31	353

Reference: patent US8349791B2, “Polypeptides that bind membrane proteins” (The Trustees of the University of Pennsylvania, priority 2006, dated 2013)
